Measurements from patent US5266589A, “Method of increasing the muscle/fat ratio in agricultural domestic animals” (Duphar International Research B.V., priority 1990, dated 1993).
Entries after “also recorded” stand apart in the source; their conditions may differ. Where two headings read alike, the source gives them in different places.

How the values were obtained:
right atrium = assay: Heart activity: chronotropic effect on isolated right atria, in relation to Isoprenaline; format: cell-based, male Wistar rats; settings: for Emax: read-out: Chronotropic effect on the right atrium: i.a. (intrinsic activity); for EC50: read-out: Chronotropic effect on the right atrium: pEC50 (converted)
Description: The heart activity has been determined in heart tissue of rats. It is known that rats are just as suitable for the determination of the heart activity (chronotropy) as the agricultural domestic animals mentioned hereinbefore.
The substances are tested with respect to their chronotropic effect on isolated right atria under a pre-load with 0.5 g, in an organ bath which contains the above Krebs buffer solution and is kept at 37° C. Dose-response curves with Isoprenaline® are determined. The results are again expressed as pEC50 values and, in relation to Isoprenaline®, as intrinsic activities ("i.a.").

bovine adipocytes = assay: Lipolytic activity on isolated bovine adipocytes (FFA production), in relation to Isoprenaline; format: cell-based; settings: for EC50 / Emax: Bos taurus, Adipocyte; for EC50: 1.5 h, read-out: Lipolytic activity: pEC50 (converted); for Emax: read-out: Lipolytic activity: i.a. (intrinsic activity)
Description: Pieces of adipose tissue of approximately 600×600 μm, isolated from bovine animals or sheep, are provided in a teflon container containing: 3 ml of Krebs-Henseleit buffer having a pH of 7.4, 1% w/v of demineralized bovine serum albumin (BSA), 0.33 mg/ml of collagenase and 200 nM of adenosine. […] After 1 hour the suspension is filtered through nylon gauze (100 μm) and washed 2 times with Krebs-Henseleit buffer at room temperature. The incubations are carried out in duplicate, each incubation mixture consisting of 50 μl of the filtered cell suspension, 100 μl of the compound to be tested, 2% w/v of BSA and 50 μg/ml of Na2 S2 O5 (antioxidant) in 2.85 ml of Krebs-Henseleit buffer. Incubation: 90 minutes at 37° C. while shaking and gassing with carbogen. After the incubation, extraction is carried out with 3 ml of 2-propanol/n-hexane/1N-H2 SO4 (40:20:1) mixture. In the organic layer the produced free fatty acids (FFA) are determined. This determination is carried out as follows: 150 μl of sample are diluted with 1 ml of chloroform and then mixed with copper reagent (10% Cu(NO3)2 /2M triethanolamine/2N acetic acid=10:9:1); 0.2% w/v of sodium diethyldithiocarbamate is added. The yellow color is measured in a colorimeter and is a measure of the FFA-production. […] The intrinsic activity is the maximally achievable activity, also measured again with respect to Isoprenaline®.

swine adipose tissue = settings: Mersmann, cited from earlier work; for lipolytic activity, in words: pigs
heart rate = settings: pig, in vivo; cited from earlier work
heart = settings: in the dosages required for the intended purpose; cited from earlier work
ovine adipocytes = assay: Lipolytic activity on isolated ovine adipocytes (FFA production), in relation to Isoprenaline; format: cell-based, sheep
Description: It is known, for example, from a contribution by R. G. Vernon in "New perspectives in Adipose Tissue; structure, function and development", page 76, edited by Cryer and Van, Butterworths 1984, London, that there exists a good relationship between the lipolytic activity on the one hand and the activity as a repartitioning agent on the other hand. This means that a high value for the lipolytic activity is predictable for the increase of the muscle/fat ratio and for improving the growth and the feed efficiency of agricultural domestic animals. The influence of the tested compounds on the lipolysis of adipocytes is described in example I hereinafter. Bovine and ovine adipocytes, i.e. adipocytes of representative examples of agricultural domestic animals, have been used in this example.
Pieces of adipose tissue of approximately 600×600 μm, isolated from bovine animals or sheep, are provided in a teflon container containing: 3 ml of Krebs-Henseleit buffer having a pH of 7.4, 1% w/v of demineralized bovine serum albumin (BSA), 0.33 mg/ml of collagenase and 200 nM of adenosine. The adipocytes are isolated by shaking the container at 37° C. under carbogen gassing (approximately 5% CO2 in 95% O2). After 1 hour the suspension is filtered through nylon gauze (100 μm) and washed 2 times with Krebs-Henseleit buffer at room temperature. The incubations are carried out in duplicate, each incubation mixture consisting of 50 μl of the filtered cell suspension, 100 μl of the compound to be tested, 2% w/v of BSA and 50 μg/ml of Na2 S2 O5 (antioxidant) in 2.85 ml of Krebs-Henseleit buffer. Incubation: 90 minutes at 37° C. while shaking and gassing with carbogen. […] In the organic layer the produced free fatty acids (FFA) are determined. […] The yellow color is measured in a colorimeter and is a measure of the FFA-production. […] In addition to the fond pEC50 values, the values for the intrinsic activity ("i.a.") have been recorded in Table A hereinafter. The intrinsic activity is the maximally achievable activity, also measured again with respect to Isoprenaline®.

[1] = compared with tested known substances / in the concentration required for the intended use

| SMILES | Emax (right atrium; Rattus norvegicus) | EC50 (right atrium; Rattus norvegicus) | heart activity, in words (right atrium; [1]) | EC50 (bovine adipocytes) | Emax (bovine adipocytes) | lipolytic activity, in words (swine adipose tissue) | side effects on the heart, in words (heart) | also measured |
| --- | --- | --- | --- | --- | --- | --- | --- | --- |
| CC(Cc1ccc(O)cc1)NCC(O)c1cc(O)cc(O)c1 (stereo not shown) [Fenoterol] | 100% | 251 nM | considerable heart activity in the concentration required for the intended purpose | 794 nM | 80% |  |  |  |
| CC(C)(C)NCC(O)c1cc(O)cc(O)c1 (stereo not shown) [terbutaline] |  |  |  |  |  | less active in lipolysis |  | increasing heart rate, in words (heart rate): more active in increasing heart rate |
| CC(C)(C)NCC(O)c1cc(Cl)c(N)c(Cl)c1 (stereo not shown) [Clenbuterol] | 40% | 50.1 nM |  | 1580 nM | 30% |  | serious side effects because in the dosages required for the intended purpose an undesired influence on the heart is exerted |  |
| CC(CCc1ccc(O)cc1)NCC(O)c1ccc(O)cc1 (stereo not shown) [Ractopamine] |  |  |  |  |  |  | serious side effects because in the dosages required for the intended purpose an undesired influence on the heart is exerted | heart activity, in words (right atrium): considerable heart activity in the required concentration; Emax (right atrium; isolated rat right atria, in relation to Isoprenaline): 100%; EC50 (right atrium; isolated rat right atria, pre-load 0.5 g, Krebs buffer, 37° C.): 31.6 nM; EC50 (bovine adipocytes; bovine adipocytes, 90 minutes at 37° C., pEC50 = negative logarithm of concentration at 50% of maximum effect): 2510 nM; Emax (bovine adipocytes; bovine adipocytes, maximally achievable activity with respect to Isoprenaline): 60% |
| CC(C)(Cc1ccc(O)cc1)NCC(O)c1cc(O)cc(O)c1 (stereo not shown) [(1), 1-(3,5-dihydroxyphenyl)-2-[1,1-dimethyl-2-(4-hydroxyphenyl)ethylamino]ethanol] | 40% | 2510 nM | considerably lower than that of the substances Ractopamine®, Fenoterol® and Clenbuterol®; also recorded: without a burdensome heart activity being experienced | 3160 nM | 80% | low lipolytic activity |  | heart activity, in words (right atrium; compared with tested known substances / in the concentration required for the intended use, listed as 1-(3,5-dihydroxyphenyl)-2-[1,1-dimethyl-2-(4-hydroxyphenyl)-ethylamino]ethanol): low heart effect; relative ED50 (lipolysis) (swine adipose tissue; swine adipose tissue, relative to Fenoterol): approximately ten times as high as that of Fenoterol®; lipolytic activity on ovine adipocytes, in words (ovine adipocytes): remarkably high lipolytic activity; EC50 (ovine adipocytes; Ovis aries, Adipocyte, 1.5 h, 90 minutes at 37° C., pEC50 = negative logarithm of concentration at 50% of maximum effect): 501 nM; Emax (ovine adipocytes; Ovis aries, Adipocyte, maximally achievable activity with respect to Isoprenaline, read-out: Lipolytic activity: i.a. (intrinsic activity)): 140%; lipolytic activity on bovine adipocytes, in words (bovine adipocytes; bovine adipocytes): remarkably high lipolytic activity; intrinsic lipolytic activity, comparison in words (bovine adipocytes; versus Ractopamine and Clenbuterol): significantly higher than that of the phenylalkylamino derivatives Ractopamine® and Clenbuterol® |
